{
  "source": "paper PMC10136189",
  "about": "“A Tale of 12 Tails: Katanin Severing Activity Affected by Carboxy-Terminal Tail Sequences” (Biomolecules, 2023)",
  "key": {"[1]": {"target": "T1, human GFP-katanin p60 (Homo sapiens, UniProt O75449)", "T1 construct": "made in house; host or cells: Escherichia coli BL21(DE3)", "T1 sequence (O75449 whole entry)": "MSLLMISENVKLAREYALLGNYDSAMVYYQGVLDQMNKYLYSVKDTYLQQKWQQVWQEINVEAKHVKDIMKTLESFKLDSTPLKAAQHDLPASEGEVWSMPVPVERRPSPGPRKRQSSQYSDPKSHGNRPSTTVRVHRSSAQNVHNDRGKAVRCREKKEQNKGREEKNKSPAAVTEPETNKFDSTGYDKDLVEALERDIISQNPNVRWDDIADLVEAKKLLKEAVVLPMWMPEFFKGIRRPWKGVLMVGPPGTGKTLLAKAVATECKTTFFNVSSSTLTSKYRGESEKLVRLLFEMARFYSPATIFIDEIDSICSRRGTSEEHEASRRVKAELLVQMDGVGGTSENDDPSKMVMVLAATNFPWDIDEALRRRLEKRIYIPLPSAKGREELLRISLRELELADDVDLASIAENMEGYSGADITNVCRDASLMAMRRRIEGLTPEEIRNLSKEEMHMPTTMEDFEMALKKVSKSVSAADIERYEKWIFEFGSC", "assay": "in vitro microtubule severing assay (loss of microtubule polymer)", "format": "biochemical", "conditions": "for inhibition of katanin severing of microtubules (loss of polymer) / relative potency as inhibitor of katanin binding and severing (comparison in words): inhibitor 0-2 μM; for inhibition of katanin severing of microtubules (loss of polymer): taxol-stabilized rhodamine microtubules, Katanin Activity Buffer pH 7.7, 2 mM ATP, 5 min movies; for relative potency as inhibitor of katanin binding and severing (comparison in words): compared with other CTTs or whole tubulin", "experimental": "(§1) In this work, we use the in vitro microtubule severing assay to quantitatively characterize the microtubule binding and severing ability of human GFP-katanin p60 in the presence of different CTT sequences. First, we ensure that our human GFP-katanin p60 can robustly and reproducibly sever microtubules and completely remove all polymer within 3–5 min (Figure 1A). As each katanin prep has slightly different activity and the activity can fluctuate (Supplemental Figure S1), we perform control experiments each day to determine the optimal katanin concentration needed and to serve as a control without added inhibitors (Figure 1A). For simplicity we use “katanin” to refer to human GFP-katanin p60 for the remainder of this manuscript.\n(§2) Flow chambers with 10 μL channels were made by adhering double-stick tape (3M, St. Paul, MN, USA) to a microscope slide and attaching a silanized coverslip cross-wise. Silanized coverslips were UVO sterilized, cleaned with rinses of acetone, ethanol, 0.1 M KOH, and ddH20 before coating with PlusOne Repel-Silane 2% dimethyldichlorosilane (Cytiva, Marlborough, MA, USA). Samples were made in the chambers by flowing through the chamber using a pipette and filter paper to wick from the other side. For severing assays, we first flowed 5% MAB1864 tubulin YL ½ antibody (Merck-Millipore, Billerica, MA, USA) in PEM-100 for three minutes to provide a binding site for microtubules. Second, we flowed 5% (w/v) Pluronic F127 to act as a polymer brush to block the surface, allowing three minutes for incubation. Next, we flowed 10% rhodamine-labeled microtubules diluted 1:100 (final tubulin concentration 454 nM) and allowed them to adhere for three minutes. During the incubation, an aliquot of katanin was rapidly defrosted from −80 °C and diluted to assay concentration. The chamber was then washed with Katanin Activity Buffer (20 mM HEPES pH 7.7, 10% glycerol, 2 mM MgCl2, 2 mM ATP, 0.025 mg/mL BSA, 0.05% F127, 10 mM dithiothreitol (DTT), 15 mg/mL glucose, 0.15 mg/mL catalase, […]) to remove excess unadhered microtubules. The chamber was then situated on the microscope to find a good field for the assay before flowing Katanin Activity Buffer with GFP-katanin and CTT tails at their respective concentrations.\n(§3) Imaging was performed using epifluorescence and total internal reflection (TIRF) with a home-built laser illumination system around a Nikon Ti-E microscope (Nikon USA, Melville, NY, USA). Epifluorescence was used to image rhodamine microtubules in the red channel, and TIRF was used to image GFP-katanin illuminating with a 488 nm laser. Images were collected with a 60x, oil-coupled TIRF objective with a numerical aperture of 1.49 (Nikon USA, Melville, NY, USA). The two-color imaging was performed using shuttering the red channel (400–800 ms exposure) and green channel (70–200 ms exposure) sequentially. The 5 min movies recorded with 3 s intervals using Nikon Elements software (Nikon USA, Melville, NY, USA) driving an Ixon EMCCD camera (Andor, Belfast, Northern Ireland) with a final pixel size of 160 nm. Movie data were saved as a 16-bit time series as nd2 files with metadata. Movies were started recording before the GFP-katanin mixture was flowed while imaging. After the 5 min, a new field of view was imaged to ensure that the loss of microtubule polymer was universal in the chamber and not due to imaging conditions.\n(§4) Each of the 64 treatments were run two to three times for replication and for obtaining 15–20 MTs for analysis. Four control chambers were run each day to ensure chamber activity was caused by the respective treatment conditions. […] Next, the concentration needed to sever microtubules within 2–3 min is determined in the presence of ATP. Once the optimal katanin concentration is determined, the assay is repeated in the absence of ATP to again test the imaging conditions in the presence of a GFP-katanin binding to microtubules. […]"}, "[2]": {"target": "T1, human GFP-katanin p60", "assay": "GFP-katanin binding to microtubules (TIRF intensity) in the severing assay", "conditions": "inhibitor 0-2 μM; GFP intensity normalized to same day control without inhibitor; pH 7.7, 2 mM ATP", "experimental": "as §1, §2\nas §3, with “Movie data were saved as a 16-bit time series as nd2 files with metadata. Movies were started recording before the GFP-katanin mixture was flowed while imaging. After the 5 min, a new field of view was imaged to ensure that the loss of microtubule polymer was universal in the chamber and not due to imaging conditions.” left out\nas §4, with “analysis.” for “analysis. Four control chambers were run each day to ensure chamber activity was caused by the respective treatment conditions.”"}},
  "data": [
    {"sequence": "A T A DDDDDDDDDD [D10]", "values": [
      {"measurement": "inhibition of katanin severing of microtubules (loss of polymer)", "setting": "[1]", "value": "can inhibit"},
      {"measurement": "inhibition of GFP-katanin binding to microtubules", "setting": "[2]", "value": "can inhibit"}
    ]},
    {"sequence": "A T A DE Q G E F EEEE G EDE A [Beta2 (TUBB2A)]", "values": [
      {"measurement": "inhibition of katanin severing of microtubules (loss of polymer)", "setting": "[1]", "value": "more beta2a CTT is needed to inhibit"},
      {"measurement": "inhibition of GFP-katanin binding to microtubules", "setting": "[2]", "value": "more beta2a CTT is needed to inhibit"}
    ]},
    {"sequence": "A T A EEEED F G EE A EEE A [Beta5 (TUNN/TUBB5)]", "values": [
      {"measurement": "relative potency as inhibitor of katanin binding and severing (comparison in words)", "setting": "[1]; listed as beta5 CTT", "value": "most potent inhibitor of the CTTs we tested"},
      {"measurement": "relative potency as inhibitor of katanin binding and severing (comparison in words)", "setting": "[1]; listed as beta5 tubulin CTT", "value": "better at inhibiting katanin than whole tubulin"},
      {"measurement": "inhibition of katanin severing of microtubules (loss of polymer)", "setting": "[1]", "value": "severing is inhibited"}
    ]},
    {"sequence": "A T A EEEED F G EE A EEE Y [Beta5-A+Y, artificial beta5 CTT with the last amino acid (A) replaced with a tyrosine]", "values": [
      {"measurement": "inhibition of katanin severing of microtubules (loss of polymer)", "setting": "[1]", "value": "far less potent as a katanin inhibitor"},
      {"measurement": "inhibition of GFP-katanin binding to microtubules", "setting": "[2]", "value": "does not affect katanin binding"}
    ]},
    {"sequence": "A T A EEEED M Y EDDDEE S E A Q G P K [Beta3 (TUBB3)]", "values": [
      {"measurement": "inhibition of katanin severing of microtubules (loss of polymer)", "setting": "[1]", "value": "cannot inhibit katanin severing"},
      {"measurement": "inhibition of GFP-katanin binding to microtubules", "setting": "[2]", "value": "little inhibition of GFP-katanin binding"}
    ]},
    {"sequence": "A T A EEEEEEEEEE [E10]", "values": [
      {"measurement": "inhibition of katanin severing of microtubules (loss of polymer)", "setting": "[1]", "value": "can inhibit"},
      {"measurement": "inhibition of GFP-katanin binding to microtubules", "setting": "[2]", "value": "can inhibit"}
    ]},
    {"sequence": "DSFEEENEGEEF [alpha8, human alpha8 tubulin tail, only alpha tail with a C-terminal F; hydrophobicity calculated, not tested]", "values": [
      {"measurement": "predicted ability to inhibit katanin severing", "setting": "[1]; prediction from hydrophobicity and C-terminal phenylalanine, not tested", "value": "unable to inhibit katanin severing"}
    ]}
  ]
}
